Converted amounts (≈) assume the structure as drawn. “Also recorded” adds a separate entry of the source. Like-named read-outs stand apart in the source and are kept apart here.
Tests used:
[1] = tested on: Escherichia coli (ATCC®25922™); test: Antimicrobial susceptibility testing in water-in-oil droplets, microscope reading; format: cell-based; details: for MIC: Escherichia coli, ATCC25922
Protocol: (§1) (at 30° C. for the C. albicans).

E. coli ATCC®25922 = details: cited from earlier work
E. faecalis ATCC®29212™ [2] = details: cited from earlier work
E. faecalis ATCC®29212™ [3] = test: Antimicrobial susceptibility testing in water-in-oil droplets, microscope reading; format: cell-based, Enterococcus faecalis
Protocol: as §1

S. aureus ATCC®29213™ [4] = details: cited from earlier work
S. aureus ATCC®29213™ [5] = test: Antimicrobial susceptibility testing in water-in-oil droplets, microscope reading; format: cell-based, Staphylococcus aureus
Protocol: as §1

[6] = tested on: Aspergillus restrictus CECT 20807; test: Inhibition of mold growth outside the droplet aqueous phase, antifungal in oil phase; format: cell-based; details: 150 mg/L in the oil phase, 48 hours
MSSA ATCC 29213 = test: Droplets with labeled fibrinogen, BSA +/- cefoxitin: growth and labeling; format: cell-based, Staphylococcus aureus
Protocol: (§2) Fibrinogen (Sigma Aldrich) that binds to Staphylococcus aureus (S. aureus cells express surface proteins that promote attachment to host proteins such as fibronectin) was labeled using Kit Lynx LNK174PETR (Abd Serotec). […] After incubation at 37° C. for 3 hours, the samples were read using the ZOE™ Fluorescent Cell Imager (Bio-Rad Laboratories). The tables below show growth (visible) and labeling (fluorescence) obtained for the tested strains of MSSA and MRSA.

MRSA ATCC 49476 = test: as above; format: cell-based, Staphylococcus aureus
Protocol: as §2

MSSA ATCC 6538 = test: as above; format: cell-based, Staphylococcus aureus
Protocol: as §2

MRSA ATCC BAA 2312 = test: as above; format: cell-based, Staphylococcus aureus
Protocol: as §2

[7] = droplets at 37° C., read after 4 and/or 6 h
[8] = conjugate 1/200, BSA 0 + FOX 0, 3 h at 37° C.
[9] = conjugate 1/200, BSA 0 + FOX 2 mg/L, 3 h at 37° C.
[10] = conjugate 1/200, BSA 2.5% + FOX 0, 3 h at 37° C.
[11] = conjugate 1/200, BSA 2.5% + FOX 2 mg/L, 3 h at 37° C.

Molecule: CN(C)[C@@H]1C(O)=C(C(N)=O)C(=O)[C@@]2(O)C(O)=C3C(=O)c4c(O)cccc4[C@@](C)(O)[C@H]3C[C@@H]12 [Tetracycline]
- Growth in % of droplets ([1]; 0.25 mg/L, reading time 6 h): Growth in 20-30% of
- MIC ([1]; droplets at 37° C., read after 4 and/or 6 h, read-out: Observed MIC): 0.5 µg/mL (≈ 1.13 µM)

Molecule: COc1cc(Cc2cnc(N)nc2N)cc(OC)c1OC [Trimethoprim]
- Growth in droplets (observation in words) ([1]; 0.125 mg/L, reading time 4 h): Limited growth in few
- Growth in droplets (observation in words) ([1]; 0.25 mg/L, reading time 4 h): Limited growth in few
- Growth in % of droplets ([1]; 0.25 mg/L, reading time 6 h): Growth in 20-30% of
- Growth in droplets (observation in words) ([1]; 0.5 mg/L, reading time 4 h): One or few small
- Growth in droplets (observation in words) ([1]; 0.5 mg/L, reading time 6 h): Limited growth in few
- Growth in droplets (observation in words) ([1]; 1 mg/L, reading time 4 h): No growth
- Growth in droplets (observation in words) ([1]; 1 mg/L, reading time 6 h): Limited growth in few
- Growth in droplets (observation in words) ([1]; 2 mg/L, reading time 4 h): No growth
- Growth in droplets (observation in words) ([1]; 2 mg/L, reading time 6 h): No growth (one small
- MIC ([1]; reading time 4 h, read-out: Observed MIC (4 h)): 1 µg/mL (≈ 3.44 µM)
- MIC ([1]; reading time 6 h, read-out: Observed MIC (6 h)): 2 µg/mL (≈ 6.89 µM)
- Expected MIC (CLSI) (E. coli ATCC®25922): 0.5 to 2 µg/mL

Molecule: CN[C@H](CC(C)C)C(=O)N[C@H]1C(=O)N[C@@H](CC(N)=O)C(=O)N[C@H]2C(=O)N[C@H]3C(=O)N[C@H](C(=O)N[C@H](C(=O)O)c4cc(O)cc(O)c4-c4cc3ccc4O)[C@H](O)c3ccc(c(Cl)c3)Oc3cc2cc(c3O[C@@H]2O[C@H](CO)[C@@H](O)[C@H](O)[C@H]2O[C@H]2C[C@](C)(N)[C@H](O)[C@H](C)O2)Oc2ccc(cc2Cl)[C@H]1O [Vancomycin]
- Expected MIC (CLSI) (E. faecalis ATCC®29212™ [2]): 1 to 4 µg/mL
- Growth in % of droplets (E. faecalis ATCC®29212™ [3]; 0.25 mg/L, reading time 4 h): Growth in 25-50%
- Growth in % of droplets (E. faecalis ATCC®29212™ [3]; 0.25 mg/L, reading time 6 h): Growth in 20-50%
- Growth in % of droplets (E. faecalis ATCC®29212™ [3]; 0.5 mg/L, reading time 4 h): Growth in 25-30%
- Growth in % of droplets (E. faecalis ATCC®29212™ [3]; 0.5 mg/L, reading time 6 h): ~30% of droplets
- Growth in droplets (observation in words) (E. faecalis ATCC®29212™ [3]; 1 mg/L, reading time 4 h): Limited growth in
- Growth in % of droplets (E. faecalis ATCC®29212™ [3]; 1 mg/L, reading time 6 h): Growth in 20-30%
- Growth in droplets (observation in words) (E. faecalis ATCC®29212™ [3]; 2 mg/L, reading time 4 h): No growth
- Growth in droplets (observation in words) (E. faecalis ATCC®29212™ [3]; 2 mg/L, reading time 6 h): No growth
- Expected MIC (CLSI) (S. aureus ATCC®29213™ [4]): 0.25 to 1 µg/mL
- Growth in % of droplets (S. aureus ATCC®29213™ [5]; 0.25 mg/L, reading time 4 h): 25-50% of droplets
- Growth in % of droplets (S. aureus ATCC®29213™ [5]; 0.25 mg/L, reading time 6 h): ~50% of the droplets
- Growth in droplets (observation in words) (S. aureus ATCC®29213™ [5]; 0.5 mg/L, reading time 4 h): 1 droplet with cells
- Growth in % of droplets (S. aureus ATCC®29213™ [5]; 0.5 mg/L, reading time 6 h): ~10% of droplets
- Growth in droplets (observation in words) (S. aureus ATCC®29213™ [5]; 1 mg/L, reading time 6 h): No growth

Molecule: O=C1OC2(c3cc(I)c(O)c(I)c3Oc3c2cc(I)c(O)c3I)c2c(Cl)c(Cl)c(Cl)c(Cl)c21 [rose bengal, 4,5,6,7-tetrachloro-2′,4′,5′,7′-tetraiodofluorescein]
- Mold growth outside the aqueous phase [6]: the hyphae spreading was inhibited and mold growth was confined within the droplet; also recorded: inhibition of mold growth outside the aqueous phase

Molecule: Colistin
- Growth in % of droplets ([1]; 0.125 mg/L, reading time 4 h): Growth in 10-20% of
- Growth in droplets (observation in words) ([1]; 0.25 mg/L, reading time 4 h): Limited growth in few
- Growth in % of droplets ([1]; 0.25 mg/L, reading time 6 h): Growth in 20-30% of
- Growth in droplets (observation in words) ([1]; 0.5 mg/L, reading time 4 h): Growth in 1 droplet
- Growth in droplets (observation in words) ([1]; 1 mg/L, reading time 6 h): No growth
- Observed MIC [1, 7]: 1 µg/mL
- Expected MIC (CLSI) (E. coli ATCC®25922): 0.5 to 2 µg/mL

Molecule: Fibrinogen
- Labeling (fluorescence) (MSSA ATCC 29213; [8]): Fluo ++
- Labeling (fluorescence) (MSSA ATCC 29213; [9]): BN (+)
- Labeling (fluorescence) (MSSA ATCC 29213; [10]): Fluo +++
- Labeling (fluorescence) (MSSA ATCC 29213; [11]): BN (+)
- Labeling (fluorescence) (MRSA ATCC 49476; [8]): Fluo +++
- Labeling (fluorescence) (MRSA ATCC 49476; [10]): Fluo +++
- Labeling (fluorescence) (MRSA ATCC 49476; [11]): Fluo +++
- Labeling (fluorescence) (MSSA ATCC 6538; [8]): Fluo +++
- Labeling (fluorescence) (MSSA ATCC 6538; [9]): BN (+)
- Labeling (fluorescence) (MSSA ATCC 6538; [10]): Fluo +++
- Labeling (fluorescence) (MSSA ATCC 6538; [11]): BN (+)
- Labeling (fluorescence) (MRSA ATCC BAA 2312; [8]): BN (+)
- Labeling (fluorescence) (MRSA ATCC BAA 2312; [9]): BN (+)
- Labeling (fluorescence) (MRSA ATCC BAA 2312; [10]): Fluo +++
- Labeling (fluorescence) (MRSA ATCC BAA 2312; [11]): Fluo +++

Molecule: Gentamycin
- Growth in % of droplets ([1]; 0.125 mg/L, reading time 4 h): ~50% of the droplets
- Growth in % of droplets ([1]; 0.25 mg/L, reading time 4 h): 30-50% of droplets
- Growth in % of droplets ([1]; 0.5 mg/L, reading time 4 h): ~30% of droplets
- Growth in % of droplets ([1]; 0.5 mg/L, reading time 6 h): 30-50% of droplets
- Growth in droplets (observation in words) ([1]; 2 mg/L, reading time 4 h): No growth
- Growth in droplets (observation in words) ([1]; 2 mg/L, reading time 6 h): No growth
- Observed MIC [1, 7]: 2 µg/mL
- Expected MIC (CLSI) (E. coli ATCC®25922): 0.25 to 1 µg/mL

Reference: patent publication US11952610B2, “Digital microbiology” (priority 2016, dated 2024)
